The source of these data is US10858407B2 (priority 2014, dated 2020).

The test concerns potassium ion channel current of the DRG neurons. It is filed as cell-based, SD rats. The following applies: 5 mM.

Molecules are shown by their SMILES.

As for `Nc1ccncc1` [4AP, 4-aminopyridine], the Current inhibition rate is reported as 0.338 and the “Current recorded after loading” value is 0.9766 nA.
